# Measurements taken from patent US11466023B2, “Combination of a Mcl-1 inhibitor and a standard of care treatment for hematologic cancers, uses and pharmaceutical compositions thereof” (LES LABORATOIRES SERVIER, priority 2017, dated 2022).
# pIC50: −log10 of the molar value. Where two headings read alike, the source gives them in different places.
# Key:
# EOL-1 AML cell line = assay: Single agent cell viability (CellTiterGlo); assay type: cell-based; details: Homo sapiens, EOL1, 72 h; EOL-1, single agent, 3 days incubation, CellTiterGlo; read-out: IC50
# Protocol: (§1) Cell lines were cultured at 37° C. in a humidified atmosphere containing 5% CO2 and expanded in T-150 flasks. […] In order to analyse the activity of the compounds as single agents, cells were seeded and treated with nine 2-fold serial dilutions of each compound dispensed individually directly into the cell assay plates. […] All the experiments were performed in triplicates. Luminescence was quantified on a multipurpose plate reader. Single agent IC50s were calculated using standard four-parametric curve fitting.
# GDM-1 AML cell line = assay: Single agent cell viability (CellTiterGlo); assay type: cell-based; details: Homo sapiens, 72 h; GDM-1, single agent, 3 days incubation, CellTiterGlo; read-out: IC50
# Protocol: as §1
# HL-60 AML cell line = assay: Single agent cell viability (CellTiterGlo); assay type: cell-based; details: Homo sapiens, 72 h; HL-60, single agent, 3 days incubation, CellTiterGlo; read-out: IC50
# Protocol: as §1
# KG1 AML cell line = assay: Single agent cell viability (CellTiterGlo); assay type: cell-based; details: 72 h; KG1, single agent, 3 days incubation, CellTiterGlo; read-out: IC50
# Protocol: as §1
# KG1a AML cell line = assay: Single agent cell viability (CellTiterGlo); assay type: cell-based; details: Homo sapiens, KG-1a, 72 h; KG1a, single agent, 3 days incubation, CellTiterGlo; read-out: IC50
# Protocol: as §1
# Kasumi-1 AML cell line = assay: Single agent cell viability (CellTiterGlo); assay type: cell-based; details: Homo sapiens, 72 h; Kasumi-1, single agent, 3 days incubation, CellTiterGlo; read-out: IC50
# Protocol: as §1
# ML-2 AML cell line = assay: Single agent cell viability (CellTiterGlo); assay type: cell-based; details: 72 h; ML-2, single agent, 3 days incubation, CellTiterGlo; read-out: IC50
# Protocol: as §1
# MOLM-13 AML cell line = assay: Single agent cell viability (CellTiterGlo); assay type: cell-based; details: Homo sapiens, 72 h; MOLM-13, single agent, 3 days incubation, CellTiterGlo; read-out: IC50
# Protocol: as §1
# MV4; 11 AML cell line = assay: Single agent cell viability (CellTiterGlo); assay type: cell-based; details: Homo sapiens, 72 h; MV4; 11, single agent, 3 days incubation, CellTiterGlo; read-out: IC50
# Protocol: as §1
# Nomo-1 AML cell line = assay: Single agent cell viability (CellTiterGlo); assay type: cell-based; details: Homo sapiens, 72 h; Nomo-1, single agent, 3 days incubation, CellTiterGlo; read-out: IC50
# Protocol: as §1
# OCI-AML3 AML cell line = assay: Single agent cell viability (CellTiterGlo); assay type: cell-based; details: Homo sapiens, OCI-AML-3, 72 h; OCI-AML3, single agent, 3 days incubation, CellTiterGlo; read-out: IC50
# Protocol: as §1
# PL-21 AML cell line = assay: Single agent cell viability (CellTiterGlo); assay type: cell-based; details: 72 h; PL-21, single agent, 3 days incubation, CellTiterGlo; read-out: IC50
# Protocol: as §1
# THP-1 AML cell line = assay: Single agent cell viability (CellTiterGlo); assay type: cell-based; details: Homo sapiens, 72 h; THP-1, single agent, 3 days incubation, CellTiterGlo; read-out: IC50
# Protocol: as §1
# [1] = system: mononuclear cells from AML patient samples; assay: Cell viability assay (Sytox blue flow cytometry) in primary AML samples; assay type: cell-based, human; details: Homo sapiens, 48 h, combination at 1:1 ratio, read-out: 50% lethal concentration (LC50)
# Protocol: Bone marrow samples from patients with AML were collected after informed consent in accordance with guidelines approved by The Alfred Hospital Human research ethics committee.
# Mononuclear cells were isolated by density-gradient centrifugation Ficoll-Hypaque (GE Healthcare, Australia) density-gradient centrifugation and red cell lysis was performed using 0.156 M NH4Cl, 0.017 M Tris-HCl pH 7.2 as previously described (Rijal et al., Blood 2015, 125, 2815-2824). Cells were then re-suspended in phosphate-buffered saline containing 2% Fetal Bovine serum (FBS; Sigma, Australia). Mononuclear cells were then suspended in RPMI-1640 (GIBCO, Australia) medium containing penicillin and streptomycin (GIBCO) and heat inactivated fetal bovine serum 15% (Sigma). Cells were washed in phosphate-buffered saline (PBS) containing 2% FBS prior to use.
# Freshly purified mononuclear cells from AML patient samples were adjusted to a concentration of 2.5×10^5/mL and 100 μL of cells aliquoted per well into 96 well plates (Sigma). Cells were then treated with idarubicin and Compound 2 over a […] concentration range from 1 nM to 10 μM for 48 hours. For combinations assays, drugs were added at a 1:1 ratio from 1 nM to 10 μM and cells were incubated at 37° C. 5% CO2. Cells were then stained with Sytox blue nucleic acid stain (Invitrogen, Australia) and fluorescence measured by flow cytometric analysis using the LSR-II Fortessa (Becton Dickinson, Australia). FACSDiva software was used for data collection, and FlowJo software for analysis. Blast cells were gated using forward and side scatter properties. Viable cells excluding Sytox blue were determined at 6 concentrations for each drug and the 50% lethal concentration (LC50, in μM) determined.
smiles,measurement,setting,value
"CC(=O)[C@]1(O)Cc2c(O)c3c(c(O)c2[C@@H](O[C@H]2C[C@H](N)[C@H](O)[C@H](C)O2)C1)C(=O)c1ccccc1C3=O [Idarubicin, idarubicin]",pIC50,EOL-1 AML cell line,8.70
same,pIC50,GDM-1 AML cell line,8.10
same,pIC50,HL-60 AML cell line,8.70
same,pIC50,KG1 AML cell line,8.22
same,pIC50,KG1a AML cell line,8.00
same,pIC50,Kasumi-1 AML cell line,8.52
same,pIC50,ML-2 AML cell line,8.00
same,pIC50,MOLM-13 AML cell line,8.52
same,pIC50,MV4; 11 AML cell line,9.00
same,pIC50,Nomo-1 AML cell line,7.55
same,pIC50,OCI-AML3 AML cell line,7.70
same,pIC50,PL-21 AML cell line,7.64
same,pIC50,THP-1 AML cell line,7.62
same,CC50,"[1]; Patient AML 6200840, 48 hours",384 nM
same,CC50,"[1]; Patient AML AH0131936, 48 hours",886 nM
same,CC50,"[1]; Patient AML AH0465385, 48 hours",5130 nM
same,CC50,"[1]; Patient AML AH0607688, 48 hours",593 nM
same,CC50,"[1]; Patient AML AH0979006, 48 hours",1.07 nM
same,CC50,"[1]; Patient AML AH1081582, 48 hours",184 nM
same,CC50,"[1]; Patient AML AH1228742, 48 hours",404000 nM
same,CC50,"[1]; Patient AML AH6120264, 48 hours",328 nM
same,CC50,"[1]; Patient AML AH6181414_2, 48 hours",3470 nM
same,CC50,"[1]; Patient AML AH6202849, 48 hours",2870 nM
same,CC50,"[1]; Patient AML AH6208160, 48 hours",1750 nM
same,CC50,"[1]; Patient AML AH6208654, 48 hours",308 nM
same,CC50,"[1]; Patient AML AH6210946, 48 hours",105 nM
same,CC50,"[1]; Patient AML AH6214498, 48 hours",1.11 nM
same,CC50,"[1]; Patient AML AH6217528, 48 hours",33.5 nM
same,CC50,"[1]; Patient AML AH6219953, 48 hours",4370 nM
same,CC50,"[1]; Patient AML AH6220847, 48 hours",14.4 nM
same,CC50,"[1]; Patient AML AH6223646, 48 hours",315 nM
same,CC50,"[1]; Patient AML AH6224104, 48 hours",192000 nM
same,CC50,"[1]; Patient AML AH6229985, 48 hours",1.38 nM
same,CC50,"[1]; Patient AML AH6607085, 48 hours",563 nM
same,CC50,"[1]; Patient AML AH6615742, 48 hours",2930 nM
same,CC50,"[1]; Patient AML AH6627892, 48 hours",2200 nM
